Laboratory results as given in publication PMC6486817 (The Journal of organic chemistry, 2018).

Target: butyrylcholinesterase (BuChE)
Assay: modified Ellman photometric anti-cholinesterase assay
Type: biochemical

With `CCC[C@H](O)CCCCCC[C@H]1CCC[C@@H]2N[C@H](C)[C@H](OC(=O)/C=C/SC)C[C@H]12` [compound 1, lepadin I] the IC50 was 3.1 µM.
